The values below come from ChEMBL document CHEMBL1150949, “Antimalarial principles from Artemisia indica” (J Nat Prod, 1998).

Molecules are shown by their SMILES.

This assay deals with Plasmodium falciparum. In words: Antimalarial activity against Plasmodium falciparum K1 by [3H]hypoxanthine uptake. In kind it is functional, organism-based.
In the case of `Oc1ccc2c(c1)OC[C@@H]1c3cc4c(cc3O[C@H]21)OCO4` [(+)-MAACKIAIN], the EC50 worked out at 165 µM. `COc1cc(O)c(Cc2ccccc2O)c(O)c1C(=O)CCc1ccccc1` [UVARETIN] returned an EC50 of 3.49 µg/mL.

Take `C=C(C)[C@H](CC=C(C)C)Cc1c(OC)cc(O)c2c1O[C@H](c1c(O)cccc1O)CC2=O` [EXIGUAFLAVONE B]: the EC50 stood at 16 µM. In the case of `Oc1ccc(-c2cc3cc4c(cc3o2)OCO4)c(O)c1`, the EC50 was determined as 100 µM. In turn, `COc1c(Cc2ccccc2O)c(O)c(Cc2ccccc2O)c(O)c1C(=O)CCc1ccccc1` [DIUVARETIN] came in with a half-maximal effective concentration (EC50) of 4.2 µg/mL. `C=C(C)[C@H](CC=C(C)C)Cc1c(O)cc(O)c2c1O[C@H](c1c(O)cccc1O)CC2=O` [EXIGUAFLAVONE A] gave an EC50 of 10.8 µM. This lies in the double-digit micromolar range.

What is called EC50 is the concentration at which the effect is half-maximal.
